In patent publication US7785564B2, “Design and synthesis of renal dipeptidase inhibitors” (The Johns Hopkins University, priority 2002, dated 2010):
Where two headings read alike, the source gives them in different places.

Key:
Renal Dipeptidase (RDP) [1] = target: T1, Renal Dipeptidase (RDP) (Homo sapiens, UniProt P16444); details: read-out: RDP inhibition Ki; colon cancer lysate; Table 1
Experimental: The assay buffer was prepared by mixing 20 mM Tris, pH=8, 10 μM ZnCl2. 1 mM substrate (ε-DNP-L-Lys-D-Amp) stock solution in DMSO was prepared. Inhibitors were diluted from MeOH stock solution in water. […] of lysate was taken in 150 μl of assay buffer and 20 μl of inhibitor was added. The mixture was incubated at room temperature for 30 min. It was then transferred to plate containing 2 μl/well, 1 mM substrate in DMSO. After mixing incubated at 37° C. Florescence was measured at 30 sec intervals. The IC50 values were determined using small Intestine lysate. Ki values were determined for selected compounds using colon cancer lysate.
(§1) The RDP inhibition activity of these compounds was determined using crude lysates prepared from human colon cancers. The results are expressed as the concentration of inhibitor needed to inhibit enzyme activity by 50% (IC50). Human colon cancer extracts were prepared by homogenizing one cm^3 of frozen colon tissue in 10 ml of 20 mM Tris, pH 8.0, 10 μM ZnCl2, 0.1% Triton X 100. The extract was clarified by centrifugation at 13,000×g for 5 minutes at 4° C. and, for each measurement, 20 μl was diluted into 158 μl of 20 mM Tris, pH 8.0, 10 μM ZnCl2. 20 μl of the synthesised compounds were added to each reaction to obtain final concentrations ranging from 0 to 10 μM. The mixtures were incubated at room temperature for 30 minutes to allow enzyme-inhibitor complex formation, and the reactions were initiated by the addition of 2 μl of 1 mM substrate (εDNP-L-Lys-D-Amp).^14 While incubating at 37° C., fluorescence (λex=320 nm, λem=405 nm) measurements were determined at 30 sec intervals and the relative reaction rate was taken as the rate of increase of fluorescence over time.

Renal Dipeptidase (RDP) [2] = target: T2, Renal Dipeptidase (RDP) (Homo sapiens, UniProt P16444); assay: RDP inhibition assay (IC50), small intestine lysate, fluorogenic substrate ε-DNP-L-Lys-D-Amp; assay type: biochemical
T2 construct: from tissue; host or cells: small intestine lysate
T2 sequence (P16444 17-385): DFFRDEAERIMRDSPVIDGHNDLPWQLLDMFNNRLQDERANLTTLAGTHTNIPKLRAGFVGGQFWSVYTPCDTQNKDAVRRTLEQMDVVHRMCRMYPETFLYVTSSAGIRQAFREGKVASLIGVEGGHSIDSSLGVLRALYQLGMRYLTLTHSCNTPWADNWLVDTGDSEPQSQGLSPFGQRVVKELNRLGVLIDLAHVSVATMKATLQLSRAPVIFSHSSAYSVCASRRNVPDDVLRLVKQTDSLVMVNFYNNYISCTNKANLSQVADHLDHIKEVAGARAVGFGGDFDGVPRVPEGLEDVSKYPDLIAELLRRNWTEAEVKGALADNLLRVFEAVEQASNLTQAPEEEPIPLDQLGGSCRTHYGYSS
Experimental: Inhibitors were diluted from MeOH stock solution in water. […] After mixing incubated at 37° C. Florescence was measured at 30 sec intervals. The IC50 values were determined using small Intestine lysate.

Renal Dipeptidase (RDP) [3] = target: T1, Renal Dipeptidase (RDP); details: for RDP inhibitor potency in words / activity of Z isomers relative to their E counterparts (9, 11 and 13): human colon cancer lysate, numbering of Table 3; for IC50: read-out: RDP inhibition activity IC50, colon cancer lysate, Table 3
Experimental: as §1

For NC(CC1CCCCC1)P(=O)(O)CC(=Cc1ccc(I)cc1)C(=O)O (mixture of isomers) [compound 14], the Ki (Renal Dipeptidase (RDP) [1]) was 3 nM and the IC50 (Renal Dipeptidase (RDP) [2]; Table 1) was 45 nM.
With NC(CC1CCCCC1)P(=O)(O)CC(=Cc1ccc(I)cc1)C(=O)O (mixture of isomers) [compound 15] the “RDP inhibitor potency in words” value (Renal Dipeptidase (RDP) [3]) was “far less active”, the IC50 (Renal Dipeptidase (RDP) [3]) was 45 nM and the Ki (Renal Dipeptidase (RDP) [1]) was 10 nM. For the same compound, the IC50 (Renal Dipeptidase (RDP) [2]; Table 1) was 250 nM.
Work on NC(CC1CCCCC1)P(=O)(O)C/C(=C\c1ccccc1)C(=O)O (centres unmarked) [compound 6] yielded a Ki (Renal Dipeptidase (RDP) [1]) of 1.12 nM and an IC50 (Renal Dipeptidase (RDP) [2]; Table 1) of 28 nM.
NC(CC1CCCCC1)P(=O)(O)C/C(=C/c1ccccc1)C(=O)O (centres unmarked) [compound 7] gave a Ki (Renal Dipeptidase (RDP) [1]) of 1.6 nM and an IC50 (Renal Dipeptidase (RDP) [2]; Table 1) of 40 nM.
With NC(CC1CCCCC1)P(=O)(O)C/C(=C\c1ccc(F)cc1)C(=O)O (centres unmarked) [compound 8] the “RDP inhibitor potency in words” value (Renal Dipeptidase (RDP) [3]) was “potent RDP inhibitors”, the “activity of Z isomers relative to their E counterparts (9, 11 and 13)” value (Renal Dipeptidase (RDP) [3]) was “significantly more active” and the IC50 (Renal Dipeptidase (RDP) [3]) was 5.5 nM. For the same compound, the Ki (Renal Dipeptidase (RDP) [1]) was 0.6 nM and the IC50 (Renal Dipeptidase (RDP) [2]; Table 1) was 5 nM.
NC(CC1CCCCC1)P(=O)(O)C/C(=C/c1ccc(F)cc1)C(=O)O (centres unmarked) [compound 9] gave an IC50 (Renal Dipeptidase (RDP) [3]) of 300 nM, a Ki (Renal Dipeptidase (RDP) [1]) of 0.72 nM and an IC50 (Renal Dipeptidase (RDP) [2]; Table 1) of 15 nM.
With NC(CC1CCCCC1)P(=O)(O)C/C(=C\c1ccc(Br)cc1)C(=O)O (centres unmarked) [compound 10] the “RDP inhibitor potency in words” value (Renal Dipeptidase (RDP) [3]) was “potent RDP inhibitors”, the “activity of Z isomers relative to their E counterparts (9, 11 and 13)” value (Renal Dipeptidase (RDP) [3]) was “significantly more active” and the IC50 (Renal Dipeptidase (RDP) [3]) was 8 nM. For the same compound, the Ki (Renal Dipeptidase (RDP) [1]) was 0.72 nM and the IC50 (Renal Dipeptidase (RDP) [2]; Table 1) was 6 nM.
For NC(CC1CCCCC1)P(=O)(O)C/C(=C/c1ccc(Br)cc1)C(=O)O (centres unmarked) [compound 11], the IC50 (Renal Dipeptidase (RDP) [3]) was 25 nM, the Ki (Renal Dipeptidase (RDP) [1]) was 2.4 nM and the IC50 (Renal Dipeptidase (RDP) [2]; Table 1) was 30 nM.
With NC(CC1CCCCC1)P(=O)(O)C/C(=C\c1ccc(I)cc1)C(=O)O (centres unmarked) [compound 12] the “RDP inhibitor potency in words” value (Renal Dipeptidase (RDP) [3]) was “potent RDP inhibitors”, the “activity of Z isomers relative to their E counterparts (9, 11 and 13)” value (Renal Dipeptidase (RDP) [3]) was “significantly more active” and the IC50 (Renal Dipeptidase (RDP) [3]) was 3.5 nM. It also gave a Ki (Renal Dipeptidase (RDP) [1]) of 0.6 nM and an IC50 (Renal Dipeptidase (RDP) [2]; Table 1) of 8 nM.
NC(CC1CCCCC1)P(=O)(O)C/C(=C/c1ccc(I)cc1)C(=O)O (centres unmarked) [compound 13] was tested, and the IC50 (Renal Dipeptidase (RDP) [3]) was 60 nM, the Ki (Renal Dipeptidase (RDP) [1]) was 2 nM and the IC50 (Renal Dipeptidase (RDP) [2]; Table 1) was 25 nM.
Compound NC(CC1CCCCC1)P(=O)(O)C/C(=C\c1ccc(C(F)(F)F)cc1)C(=O)O (centres unmarked) [compound 18] has an IC50 (Renal Dipeptidase (RDP) [2]; Table 2) of 10 nM.
With NC(CC1CCCCC1)P(=O)(O)C/C(=C/c1ccc(C(F)(F)F)cc1)C(=O)O (centres unmarked) [compound 19] the IC50 (Renal Dipeptidase (RDP) [2]; Table 2) was 200 nM.
CCN(CC)c1ccc(/C=C(\CP(=O)(O)C(N)CC2CCCCC2)C(=O)O)cc1 (centres unmarked) [compound 26] showed an IC50 (Renal Dipeptidase (RDP) [2]; Table 2) of 70 nM.
CCN(CC)c1ccc(/C=C(/CP(=O)(O)C(N)CC2CCCCC2)C(=O)O)cc1 (centres unmarked) [compound 27] gave an IC50 (Renal Dipeptidase (RDP) [2]; Table 2) of 150 nM.
